Non-standard residues stand in square brackets, D forms with d. Residues, ends and D or L forms follow the SMILES beside them. Aib = CC(C)(N)C(=O)O
Columns and labels:
Format in all cases: cell-based, human
HT1080 cells [1] = assay: FBS-directed matrigel invasion of HT1080 cells (xCELLigence RTCA)
From the text: FIG. 5 Peptides RI-1, RI-2, RI-3, RI-4 and RI-5 reduced by 33%, 35%, 81%, 52% and 11%, respectively, the extent of FBS-directed matrigel invasion of HT1080 cells (A), as assessed in real time using the xCELLigence RTCA technology. The inhibitory effect of RI-3 is dose-dependent (B) (Example 5).
Cell migration is a prerequisite for cancer invasion. Therefore, we investigated whether retro-inverso peptides prevent matrigel invasion of HT1080 cells using the xCELLigence RTCA technology. Cells were seeded on polymerized matrigel and lower chambers were filled with DMEM (CTRL), growth medium (None) or growth medium with 10 nM the indicated peptides (A), or with increasing concentrations of RI-3 (B). Matrigel invasion was monitored in real time for 20 (A) or 18 (B) hrs at 37° C., 5% CO2 and the impedance values were automatically monitored as changes in cell index. Data represent means±SD from quadruplicate experiments, each representative of 2 replicates. HT1080 cells were able to cross matrigel in the presence of 10% FBS. All retro-inverso peptides caused a reduction of FBS-directed cell migration although to different extent.

HUVECs = assay: Endothelial tube formation on matrigel; conditions: 10 nM
Description: FIG. 10 At the concentration of 10 nM the retro-inverso peptide RI-3 inhibits both FBS (61%) and VEGF-triggered (75%) endothelial tube formation. (A) representative pictures taken with an inverted microscope at 100× magnifications. (B) quantitative analysis (Example 10).
Endothelial cells undergo morphological differentiation into an extensive network of capillary-like structures consisting of highly organized three-dimensional cords when seeded on matrigel in the presence of a pro-angiogenic stimuli. HUVECs were suspended in medium (CTRL) or medium with 10% FBS or 40 ng/ml VEGF165, without (None) or with 10 nM RI-3 and seeded on matrigel-coated plates for 6 hrs at 37° C., 5% CO2. Representative pictures were taken with an inverted microscope at 100× magnifications. Scale bar: 10 μm (A). Quantitative analysis of tube formation was calculated as a percentage of tubes formed by cord-like structures counted in the absence of any angiogenic stimulus and considered as 100% (CTRL). Data represent means±SD of two independent experiments performed in duplicate. Statistical significance was calculated against none with *p<0.05, **p<0.001 (B). Both FBS and VEGF promoted endothelial tube formation, reaching 352% and 620%, respectively, above basal. The retro-inverso peptide RI-3 reduced FBS- and VEGF-dependent tube formation by 61% and 75%, respectively.

THP1 monocytes = assay: Trans-endothelial migration through HUVEC monolayer (xCELLigence RTCA), THP-1; conditions: 10 nM, 5 hrs
Description: FIG. 9 At the concentration of 10 nM the retro-inverso peptide RI-3 affects trans-endothelial migration of human chondrosarcoma Sarc (A), melanoma A375 (B), ovarian carcinoma SKOV-3 (C) cells, or THP1 monocytes (D), as monitored by the xCELLigence RTCA system (Example 9).
The entry of tumor cells into bloodstream is one of the earliest events of the metastatic process. The ability of RI-3 to affect trans-endothelial migration of human chondrosarcoma Sarc (A) melanoma A375 (B), ovarian carcinoma SKOV-3 (C) cells, or THP1 monocytes (D) was monitored by the xCELLigence RTCA system. Human Umbilical Vein Endothelial Cells (HUVEC) (1×10^4 cells/well) suspended in growth medium, were allowed to grow for 20-25 hrs until they form a confluent monolayer, prior to seeding Sarc, A375, SKOV-3, or THP-1 cells (1×10^4 cells/well) in growth medium in the absence (None) or in the presence of 10 nM RI-3. The experiments were performed twice in quadruplicate. When cells cross the endothelial monolayer, there is a drop in electrical resistance which is monitored in real-time for 5 hrs as the cell index changes due to the rupture of endothelial monolayer. All cell lines were able to reduce endothelial monolayer integrity. The addition of 10 nM RI-3 inhibited the capability of Sarc, A375, SKOV-3, and THP-1 cells to disrupt endothelial monolayers by 17%, 22%, 58%, and 36% respectively.

HT1080 cells [2] = assay: FBS-directed migration of HT1080 cells in Boyden chambers; conditions: 10 nM peptide, 10% FBS, 4 hrs
Description: FIG. 4 Retro-inverso peptides inhibit FBS-directed migration of HT1080 cells in a dose dependent manner (Example 4).
To assess whether retro-inverso peptides exert some effect on directional cell migration, HT1080 cells were allowed to migrate for 4 hrs in Boyden chambers toward serum-free medium (CTRL), 10% FBS (None) or 10% FBS mixed with peptides, each tested at 10 nM concentration. For quantitative analysis, the basal values assessed in the absence of FBS (CTRL) was taken as 100% and all values were reported relative to that. Data are the means±SD of two independent experiments, performed in triplicate. Statistical significance calculated against None with *p<0.01, **p<0.001 (A). All retro-inverso peptides caused a reduction of FBS-directed cell migration although to different extent. Peptides RI-1, RI-2, RI-3, RI-4 and RI-5 reduced by 49%, 46%, 65%, 9% and 6%, respectively, the extent of FBS-directed cell migration. Similar results were obtained when, HT1080 cell migration was monitored in real time for 18 hrs at 37° C., 5% CO2 by the xCELLigence system. Data represent mean±SD from a quadruplicate experiment representative of 2 replicates (B). Then, HT1080 cells were allowed to migrate in Boyden chambers toward 10% FBS plus increasing concentrations of RI-3, and data were expressed as a percentage of cells migrated toward FBS alone (100%) Inhibitory effect of RI-3 is dose-dependent, it starts in the high fM range, it seems to level off in the nM range and reaches an overall 50% reduction at 1×10^−13M (C).

## CC(=O)N[C@H](Cc1ccc(O)cc1)C(=O)N[C@H](CCCNC(=N)N)C(=O)NC(C)(C)C(=O)N[C@H](CCCNC(=N)N)C(N)=O [RI-3, Ac-(D)-Tyr-(D)-Arg-Aib-(D)-Arg-NH2] (Ac-[dY][dR][Aib][dR]-NH2)
HT1080 cells [1]; 10 nM peptide, growth medium, 20 hrs
  reduction of the extent of FBS-directed cell invasion (matrigel): 81%
HT1080 cells [1]; increasing concentrations, 18 hrs
  dose dependence of the inhibition of matrigel invasion: maximal effect being reached in the nanomolar range
HUVECs; 40 ng/ml VEGF165, 6 hrs
  reduction of VEGF-dependent tube formation: 75%
HUVECs; 10% FBS, 6 hrs
  reduction of FBS-dependent tube formation: 61%
THP1 monocytes
  inhibition of the capability to disrupt endothelial monolayers: 36%
HT1080 cells [2]
  reduction of the extent of FBS-directed cell migration: 65%

Reference: patent publication US10836792B2, “Retro-inverso peptide inhibitors of cell migration, extracellular matrix and endothelial invasion by tumor cells” (ISTITUTO NAZIONALE TUMORI IRCCS “FONDAZIONE G. PASCALE”, priority 2016, dated 2020)
